What all share (type): cell-based
One assay concerns Lovo (G13D) cells. Put plainly: Cell viability assay (CELLTITER-GLO), Lovo cells. The following applies: Homo sapiens, 72 h, Inhibition of cancerous cells, 3 days incubation, luminescence. As to the method: (§1) AsPC-1, H358, and SW48 cells were cultured in RPMI 1640 media supplemented with 10% fetal bovine serum, streptomycin, and penicillin. Lovo and SW480 cells were cultured in DMEM media supplemented with 10% fetal bovine serum, streptomycin, and penicillin. The cell lines were plated in their respective medium supplemented with 2.5% fetal bovine serum, streptomycin, and penicillin. All cell lines were plated in white walled 96-well plates at 2,000 cells/well or 384-well plates at 500 cells/well, except Lovo, which were plated at 4,000 or 1,000 cells/well, respectively. The cells were incubated in DMSO (control) or a compound for 3 days at 37° C. under 5% CO2. A CELLTITER-GLO® reagent ([…] was then added to each well. After a 10 min incubation with shaking, luminescence was measured using an ENVISION® multimode plate reader. IC50 values are summarized in Table 1.
(In general: In ATP-based viability assays light output follows the ATP content of the culture.)

The subject of another assay is SW480 (G12V) cells. Put plainly: Cell viability assay (CELLTITER-GLO), SW480 cells. To be noted: Homo sapiens, 72 h, Inhibition of cancerous cells, 3 days incubation, luminescence. As to the method: as §1
In another assay the test system is SW48 (wt) cells. The assay can be described thus: Cell viability assay (CELLTITER-GLO), SW48 cells. To be noted: Homo sapiens, 72 h, Inhibition of cancerous cells, 3 days incubation, luminescence. On the procedure:
as §1

A further assay concerns H358 (G12C) cells. The assay can be described thus: Cell viability assay (CELLTITER-GLO), H358 cells. To be noted: Homo sapiens, NCI-H358, 72 h, Inhibition of cancerous cells, 3 days incubation, luminescence. As to the method: as §1
Another assay concerns AsPC-1 (G12D) cells. The assay can be described thus: Cell viability assay (CELLTITER-GLO), AsPC-1 cells. To be noted: Homo sapiens, ASPC1, 72 h, Inhibition of cancerous cells, 3 days incubation, luminescence. On the procedure:
as §1

This note sets out measurements from patent US20240197888A1, “SOS1 PROTEIN DEGRADERS, PHARMACEUTICAL COMPOSITIONS THEREOF, AND THEIR THERAPEUTIC APPLICATIONS” (BioTheryX, Inc., priority 2021, published 2024).

One may read the IC50 as the concentration needed to halve the response being measured.

With `CNCc1ccccc1-c1csc([C@@H](C)Nc2nc(C)nc3cc(OCCCCCCC(=O)N4CCCCC4)c(OC)cc23)c1` [Compound A68, (R)-7-((6-Methoxy-2-methyl-4-((1-(4-(2-((methylamino)methyl)phenyl)thiophen-2-yl)ethyl)amino)quinazolin-7-yl)oxy)-1-(piperidin-1-yl)heptan-1-one], the concentration for half-maximal inhibition (IC50) with Lovo (G13D) cells was determined as 0.36 µM; in the assay with SW480 (G12V) cells it was 0.36 µM; with SW48 (wt) cells, 0.55 µM; in the assay with H358 (G12C) cells it was 0.65 µM; in the assay with AsPC-1 (G12D) cells, 1.5 µM.
`CNCc1ccccc1-c1csc([C@H](C)Nc2nc(C)nc3cc(OCCCCCCCN4CCN(C(C)=O)CC4)c(OC)cc23)c1` [Compound A65, (S)-1-(4-(7-((6-Methoxy-2-methyl-4-((1-(4-(2-((methylamino)methyl)phenyl)-thiophen-2-yl)ethyl)amino)quinazolin-7-yl)oxy)heptyl)piperazin-1-yl)ethan-1-one]: the IC50 in the assay with Lovo (G13D) cells amounted to 0.34 µM; with SW480 (G12V) cells, 0.38 µM; in the assay on SW48 (wt) cells, 0.53 µM; in the assay with H358 (G12C) cells it was 1.1 µM; with AsPC-1 (G12D) cells, 0.68 µM.
Consider `COc1cc2nc(C)nc(N[C@H](C)c3cccc(Br)c3)c2cc1OC` [reference compound], for which the half-maximal inhibitory concentration (IC50) with Lovo (G13D) cells is 2.5 µM; in the assay on SW480 (G12V) cells it was 3.4 µM; in the assay on SW48 (wt) cells it was 3.6 µM; in the assay on H358 (G12C) cells, 3.2 µM; with AsPC-1 (G12D) cells, 5.1 µM.
Take `COc1cc2nc(C)nc(N[C@H](C)c3cc(N)cc(C(F)(F)F)c3)c2cc1OC` [reference compound]: the half-maximal inhibitory concentration (IC50) with Lovo (G13D) cells, in the assay on SW480 (G12V) cells, in the assay on SW48 (wt) cells, with H358 (G12C) cells and with AsPC-1 (G12D) cells was more than 10 µM in each case.
Take `CNCc1ccccc1-c1csc([C@@H](C)Nc2nc(C)nc3cc(OCCC(C)(C)C)c(OC)cc23)c1` [Compound A62, (R)-7-(3,3-Dimethylbutoxy)-6-methoxy-2-methyl-N-(1-(4-(2-((methylamino)-methyl)phenyl)thiophen-2-yl)ethyl)quinazolin-4-amine]: the half-inhibitory concentration (IC50) in the assay with Lovo (G13D) cells was determined as 0.5 µM; in the assay on SW480 (G12V) cells it was 0.45 µM; in the assay on SW48 (wt) cells, 0.53 µM; in the assay with H358 (G12C) cells, 1.3 µM; with AsPC-1 (G12D) cells, 1.1 µM.
On to `CNCc1ccccc1-c1csc([C@H](C)Nc2nc(C)nc3cc(OCCCCCCC(=O)N4CCCCC4)c(OC)cc23)c1` [Compound A69, (S)-7-((6-Methoxy-2-methyl-4-((1-(4-(2-((methylamino)methyl)phenyl)thiophen-2-yl)ethyl)amino)quinazolin-7-yl)oxy)-1-(piperidin-1-yl)heptan-1-one], for which the IC50 in the assay with Lovo (G13D) cells was 0.72 µM; in the assay on SW480 (G12V) cells, 0.41 µM; in the assay on SW48 (wt) cells it was 0.66 µM; in the assay on H358 (G12C) cells, 0.93 µM; in the assay with AsPC-1 (G12D) cells, 2 µM.
As to `CNCc1ccccc1-c1csc([C@@H](C)Nc2nc(C)nc3cc(OCCCCCCCC4CCC(c5ccccc5)CC4)c(OC)cc23)c1` (stereo partly drawn) [Compound A60, (R)-6-Methoxy-2-methyl-N-(1-(4-(2-((methylamino)methyl)phenyl)thiophen-2-yl)ethyl)-7-((7-(4-phenylcyclohexyl)heptyl)oxy)quinazolin-4-amine], the half-inhibitory concentration (IC50) stood at 0.24 µM with Lovo (G13D) cells; 0.25 µM with SW480 (G12V) cells; 0.17 µM with SW48 (wt) cells; 0.53 µM with H358 (G12C) cells; 0.51 µM in the assay on AsPC-1 (G12D) cells.
For the compound `CNCc1ccccc1-c1csc([C@@H](C)Nc2nc(C)nc3cc(OCCCCCCCN4CCC(C(F)(F)F)CC4)c(OC)cc23)c1` [Compound A67, (R)-6-Methoxy-2-methyl-N-(1-(4-(2-((methylamino)methyl)phenyl)thiophen-2-yl)ethyl)-7-((7-(4-(trifluoromethyl)piperidin-1-yl)heptyl)oxy)quinazolin-4-amine], the IC50 in the assay with Lovo (G13D) cells was 0.54 µM; with SW480 (G12V) cells, 0.44 µM; with SW48 (wt) cells it was 0.53 µM; in the assay on H358 (G12C) cells, 1.2 µM; in the assay with AsPC-1 (G12D) cells, 0.59 µM.
For `COc1cc2c(N[C@H](C)c3cccc(Br)c3)nc(C)nc2cc1OCCCCCCCN1CCC2(CC1)CCN(C(=O)OC(C)(C)C)CC2` [Compound A72, Tert-butyl (R)-9-(7-((4-((1-(3-bromophenyl)ethyl)amino)-6-methoxy-2-methyl-quinazolin-7-yl)oxy)heptyl)-3,9-diazaspiro[5.5]undecane-3-carboxylate] the same measures were 0.39 µM, 0.48 µM, 0.64 µM, 1.1 µM and 1 µM.
With `CNCc1ccccc1-c1csc(C(C)Nc2nc(C)nc3cc(OCCCCCCCN4CCC(C(F)(F)F)CC4)c(OC)cc23)c1` (stereo in doubt) [Compound A66, (R)-6-Methoxy-2-methyl-N-(1-(4-(2-((methylamino)methyl)phenyl)thiophen-2-yl)ethyl)-7-((7-(4-(trifluoromethyl)piperidin-1-yl)heptyl)oxy)quinazolin-4-amine], the IC50 with Lovo (G13D) cells amounted to 1.1 µM; in the assay on SW480 (G12V) cells it was 0.55 µM; in the assay with SW48 (wt) cells it was 0.82 µM; in the assay with H358 (G12C) cells, 1.2 µM; in the assay on AsPC-1 (G12D) cells it was 2 µM.
`CNCc1ccccc1-c1csc([C@H](C)Nc2nc(C)nc3cc(OCCCCCCC(C)(C)C)c(OC)cc23)c1` [Compound A59, (S)-7-((7,7-Dimethyloctyl)oxy)-6-methoxy-2-methyl-N-(1-(4-(2-((methylamino)-methyl)phenyl)thiophen-2-yl)ethyl)quinazolin-4-amine] showed an IC50 in the assay with AsPC-1 (G12D) cells of 3.1 µM.
With `COc1cc2c(N[C@H](C)c3cccc(Br)c3)nc(C)nc2cc1OCCCCCCCN1CCC2(CCNCC2)CC1` [Compound A71, (R)-7-((7-(3,9-Diazaspiro[5.5]undecan-3-yl)heptyl)oxy)-N-(1-(3-bromophenyl)-ethyl)-6-methoxy-2-methylquinazolin-4-amine], the half-inhibitory concentration (IC50) with Lovo (G13D) cells is 1.4 µM; in the assay on SW480 (G12V) cells, 1.5 µM; in the assay with SW48 (wt) cells it was 1.4 µM; in the assay with H358 (G12C) cells, 2.8 µM; in the assay on AsPC-1 (G12D) cells, 2.7 µM.
Take `CNCc1ccccc1-c1csc([C@@H](C)Nc2nc(C)nc3cc(OC)c(OC)cc23)c1` [reference compound]: the half-maximal inhibitory concentration (IC50) in the assay on Lovo (G13D) cells amounted to 0.69 µM; in the assay with SW480 (G12V) cells, 1 µM; in the assay on SW48 (wt) cells, 1.3 µM; in the assay with H358 (G12C) cells, 1.7 µM; in the assay on AsPC-1 (G12D) cells, 3.5 µM.
Take `CNCc1ccccc1-c1csc([C@H](C)Nc2nc(C)nc3cc(OCCC(C)(C)C)c(OC)cc23)c1` [Compound A63, (S)-7-(3,3-Dimethylbutoxy)-6-methoxy-2-methyl-N-(1-(4-(2-((methylamino)-methyl)phenyl)thiophen-2-yl)ethyl)quinazolin-4-amine]: the IC50 with Lovo (G13D) cells came to 0.42 µM; in the assay on SW480 (G12V) cells, 0.46 µM; in the assay with SW48 (wt) cells it was 0.53 µM; in the assay with H358 (G12C) cells, 1.1 µM; in the assay on AsPC-1 (G12D) cells it was 1 µM.
On the same counts, the results for `COc1cc2nc(C)nc(N[C@H](C)c3cccc(C(F)(F)CO)c3)c2cc1OC` [reference compound] are more than 10 µM, more than 10 µM, more than 10 µM, more than 10 µM and more than 10 µM.
As to `COc1cc2c(N[C@H](C)c3cccc(Br)c3)nc(C)nc2cc1OCCCCCCCN1CCCC(F)(F)C1` [Compound A44, (R)—N-(1-(3-Bromophenyl)ethyl)-7-((7-(3,3-difluoropiperidin-1-yl)heptyl)oxy)-6-methoxy-2-methylquinazolin-4-amine], the IC50 with Lovo (G13D) cells amounted to 0.55 µM; in the assay on SW480 (G12V) cells, 1.2 µM; in the assay on SW48 (wt) cells, 2 µM; with H358 (G12C) cells, 1.9 µM.
